Source: US8455033B2, “Taste potentiator compositions and edible confectionery and chewing gum products containing same” (Kraft Foods Global Brands LLC, priority 2005, dated 2013)

Assays:
[1] = 0.2% added to a 5% sucrose solution; Canadian Patent No. 1208966; cited from earlier work
expert panel members = assay: Sucrose Equivalent Value (SEV): expert panel matches the test solution to stock sucrose solutions; assay type: in vivo; conditions: for effect on sweetness of the sucrose solution (dose response curve): 0 to 1000 ppm in pH 3.2 buffered 5% sucrose; for effect on sweetness (SEV) of sucrose solutions: 500 ppm in pH 3.2 buffered 0%, 3%, 5%, 7% and 9% sucrose; for SEV (%): 500 ppm of a single potentiator in pH 3.2 buffered 5% sucrose
Experimental: One method of measuring the perceived sweetness of a solution is to match it with a stock sucrose solution of known concentration. In the present experiments, the compound of interest is added at a predetermined concentration to a pH 3.2 buffered solution containing 5% sucrose. A number of expert panel members then taste the solution and compare it to a battery of stock sucrose solutions ranging from 3% to 15% at increments of 1%. Each panel member decides which sucrose solution is equisweet with the solution containing the compound of interest. The mean value is then reported as the SEV. Results are reported to 1 decimal place.
In accordance with this methodology, 3-HB was added to a pH 3.2 buffered solution containing 5% sucrose to produce solutions containing from 0 to 1000 ppm 3-HB in 100 ppm increments. […] From FIG. 1 it is apparent that as the dosage of 3-HB increases so does the sweetness of the resultant solution. However the effect is non-linear with each incremental addition having a diminishing effect. The maximum sweetness attainable would appear to be about 7.9% SEV (based on a 5% sucrose solution).
The same methodology as described in Example 7 was repeated with 2,4-DHB in place of 3-HB, to produce the dose response curve for 2,4-DHB (FIG. 2). […] The maximum attainable sweetness would appear to be about 6.7% SEV (based on a 5% sucrose solution).
500 ppm of a sweetener potentiator was added to a pH 3.2 buffered solution containing 5% sucrose and the SEV of the resultant solution determined. […]
pH 3.2 buffered solutions were prepared containing 0%, 3%, 5%, 7% and 9% sucrose. 500 ppm of 2,4-DHB acid, 500 ppm of the sodium salt of 2,4-DHB and 500 ppm of the potassium salt of 2,4-DHB were added individually to each of the sucrose solutions. The SEV for each of the solutions was then determined.
500 ppm of 3-aminobenzoic acid and 500 ppm of 4-aminobenzoic acid were individually added to separate pH 3.2 buffered solutions containing 5% sucrose and the SEVs of the resultant solutions were determined. The SEV of 3-aminobenzoic acid was about 7%, i.e., increased the sweetness intensity of 5% sucrose to about 7%. The SEV of 4-aminobenzoic acid was about 5.5-6%, i.e., increased the sweetness intensity of 5% sucrose to about 5.5-6%.

SMILES | effect on sweetness of the sucrose solution (dose response curve) (expert panel members) | effect on sweetness (SEV) of sucrose solutions (expert panel members) | SEV (%) (expert panel members) | also measured
O=C(O)c1ccc(O)cc1O [2,4-DHB, 2,4-dihydroxybenzoic acid] | enhances the sweetness of the sucrose solution | enhances the sweetness of the sucrose solution in every case | – | effect on sweetness of sucrose solution [1]: increase in sweetness
O=C(O)c1cc(O)c(O)c(O)c1 [3,4,5-THB, 3,4,5-tryhydroxybenzoic acid] | – | – | 5.1 | –
O=C(O)c1ccc(O)c(O)c1 [3,4-DHB, 3,4-dihydroxybenzoic acid] | – | – | 6.4 | –
O=C(O)c1cccc(O)c1 [3-HB, 3-hydroxybenzoic acid] | enhances the sweetness of the sucrose solution | – | – | –
O=C([O-])c1ccc(O)cc1O.[K+] [potassium salt of 2,4-DHB] | – | enhances the sweetness of the sucrose solution in every case | – | –
O=C([O-])c1ccc(O)cc1O.[Na+] [sodium salt of 2,4-DHB] | – | enhances the sweetness of the sucrose solution in every case | – | –
